Biological target: Lethal factor protease (Bacillus anthracis, UniProt P15917)
Experiment: biochemical
Conditions: LF (FRET) Ki^app

Chain of Lethal factor protease (P15917 34-809 limits assumed): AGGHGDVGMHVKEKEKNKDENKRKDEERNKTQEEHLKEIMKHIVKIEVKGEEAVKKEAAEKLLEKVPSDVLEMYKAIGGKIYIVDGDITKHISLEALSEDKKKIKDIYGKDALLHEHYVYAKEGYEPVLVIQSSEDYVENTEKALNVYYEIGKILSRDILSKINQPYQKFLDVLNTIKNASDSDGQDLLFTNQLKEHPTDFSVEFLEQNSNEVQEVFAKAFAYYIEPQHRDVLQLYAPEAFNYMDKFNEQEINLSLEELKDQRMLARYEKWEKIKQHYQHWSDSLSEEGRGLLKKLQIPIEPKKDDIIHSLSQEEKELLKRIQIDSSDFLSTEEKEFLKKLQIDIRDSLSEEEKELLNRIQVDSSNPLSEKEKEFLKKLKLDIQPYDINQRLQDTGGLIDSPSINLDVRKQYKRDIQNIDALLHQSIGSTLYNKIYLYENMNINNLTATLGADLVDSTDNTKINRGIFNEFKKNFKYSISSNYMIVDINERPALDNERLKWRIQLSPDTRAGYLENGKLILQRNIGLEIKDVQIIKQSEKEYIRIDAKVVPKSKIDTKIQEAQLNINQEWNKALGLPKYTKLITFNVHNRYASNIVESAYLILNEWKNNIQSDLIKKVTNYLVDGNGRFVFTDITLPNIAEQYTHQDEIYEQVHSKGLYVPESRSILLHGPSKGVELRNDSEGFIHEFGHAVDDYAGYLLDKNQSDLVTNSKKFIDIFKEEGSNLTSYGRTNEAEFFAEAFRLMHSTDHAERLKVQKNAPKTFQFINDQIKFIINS

| SMILES | Ki [nM] |
| --- | --- |
| CO[C@H](C[C@H](CCN1CCOCC1)C(=O)NO)c1ccc(F)cc1 [Compound 167829, (2S,4R)-4-(4-fluorophenyl)-N-hydroxy-4-methoxy-2-(2-morpholinoethyl)butanamide] | 5700 |
| CO[C@H](C[C@H](CCN1CCC(F)(F)CC1)C(=O)NO)c1ccc(F)cc1 [Compound 167884, (2S,4R)-2-(2-(4,4-difluoropiperidin-1-yl)ethyl)-4-(4-fluorophenyl)-N-hydroxy-4-methoxybutanamide] | 2200 |
| CO[C@H](C[C@H](CCN1CCCC(CO)C1)C(=O)NO)c1ccc(F)cc1 (stereo partly drawn) [Compound 167885, (2S,4R)-4-(4-fluorophenyl)-N-hydroxy-2-(2-(3-(hydroxymethyl)piperidin-1-yl)ethyl)-4-methoxybutanamide] | 760 |
| CO[C@H](C[C@H](CCN1CCCCC1)C(=O)NO)c1ccc(F)cc1 [Compound 167889, (2S,4R)-4-(4-fluorophenyl)-N-hydroxy-4-methoxy-2-(2-(piperidin-1-yl)ethyl)butanamide] | 1500 |
| CO[C@H](C[C@H](CCN(C)CCOc1ccccc1)C(=O)NO)c1ccc(F)cc1 [Compound 167890, (2S,4R)-4-(4-fluorophenyl)-N-hydroxy-4-methoxy-2-(2-(methyl(2-phenoxyethyl)amino)ethyl)butanamide] | 1600 |
| CO[C@H](C[C@H](CCN1CCc2ccccc2C1)C(=O)NO)c1ccc(F)cc1 [Compound 167891, (2S,4R)-2-(2-(3,4-dihydroisoquinolin-2(1H)-yl)ethyl)-4-(4-fluorophenyl)-N-hydroxy-4-methoxybutanamide] | 920 |
| CO[C@H](C[C@H](CCN1CCCCCC1)C(=O)NO)c1ccc(F)cc1 [Compound 167911, (2S,4R)-2-(2-(azepan-1-yl)ethyl)-4-(4-fluorophenyl)-N-hydroxy-4-methoxybutanamide] | 69500 |
| CO[C@H](C[C@H](CCN1CCCCCCC1)C(=O)NO)c1ccc(F)cc1 [Compound 167912, (2S,4R)-2-(2-(azocan-1-yl)ethyl)-4-(4-fluorophenyl)-N-hydroxy-4-methoxybutanamide] | 284000 |
| CO[C@H](C[C@H](CCN(C)CCO)C(=O)NO)c1ccc(F)cc1 [Compound 167922] | 1490 |
| CO[C@H](C[C@H](CCN1CCCC1)C(=O)NO)c1ccc(F)cc1 [Compound 167923, (2S,4R)-4-(4-fluorophenyl)-N-hydroxy-4-methoxy-2-(2-(pyrrolidin-1-yl)ethyl)butanamide] | 970 |
| CO[C@H](C[C@H](CCN1CCCC(C(=O)O)C1)C(=O)NO)c1ccc(F)cc1 (stereo partly drawn) [Compound 167924, 1-((3S,5R)-5-(4-fluorophenyl)-3-(hydroxycarbamoyl)-5-methoxypentyl)piperidine-3-carboxylic acid] | 9000 |
| CO[C@H](C[C@H](CCN1CCC(Cc2ccccc2)CC1)C(=O)NO)c1ccc(F)cc1 [Compound 167940, (2S,4R)-2-(2-(4-benzylpiperidin-1-yl)ethyl)-4-(4-fluorophenyl)-N-hydroxy-4-methoxybutanamide] | 400 |
| CO[C@H](C[C@H](CCN1CCN(C(=O)OC(C)(C)C)CC1)C(=O)NO)c1ccc(F)cc1 [Compound 167944, tert-butyl 4-((3S,5R)-5-(4-fluorophenyl)-3-(hydroxycarbamoyl)-5-methoxypentyl)piperazine-1-carboxylate] | 2500 |
| CO[C@H](C[C@H](CCN(C)CCc1ccccc1)C(=O)NO)c1ccc(F)cc1 [Compound 167952, (2S,4R)-4-(4-fluorophenyl)-N-hydroxy-4-methoxy-2-(2-(methyl(phenethyl)amino)ethyl)butanamide] | 770 |
| CO[C@H](C[C@H](CCN(C)CCCc1ccccc1)C(=O)NO)c1ccc(F)cc1 [Compound 167953, (2S,4R)-4-(4-fluorophenyl)-N-hydroxy-4-methoxy-2-(2-(methyl(3-phenylpropyl)amino)ethyl)butanamide] | 230 |
| CO[C@H](C[C@H](CCN(C)C)C(=O)NO)c1ccc(F)cc1 [Compound 167954, (2S,4R)-2-(2-(dimethylamino)ethyl)-4-(4-fluorophenyl)-N-hydroxy-4-methoxybutanamide] | 970 |
| CO[C@H](C[C@H](CCN1CCNCC1)C(=O)NO)c1ccc(F)cc1 [Compound 167955, (2S,4R)-4-(4-fluorophenyl)-N-hydroxy-4-methoxy-2-(2-(piperazin-1-yl)ethyl)butanamide] | 830 |
| CO[C@H](C[C@H](CCN1CCN(CCc2ccccc2)CC1)C(=O)NO)c1ccc(F)cc1 [Compound 167958, (2S,4R)-4-(4-fluorophenyl)-N-hydroxy-4-methoxy-2-(2-(4-phenethylpiperazin-1-yl)ethyl)butanamide] | 2400 |
| CO[C@H](C[C@H](CCN1CCN(CCCc2ccccc2)CC1)C(=O)NO)c1ccc(F)cc1 [Compound 167959, (2S,4R)-4-(4-fluorophenyl)-N-hydroxy-4-methoxy-2-(2-(4-(3-phenylpropyl)piperazin-1-yl)ethyl)butanamide] | 1000 |

| SMILES | Ki [nM] |
| --- | --- |
| CO[C@H](C[C@H](CCN1CCN(Cc2ccc(F)c(C)c2)CC1)C(=O)NO)c1ccc(F)cc1 [Compound 167960, (2S,4R)-2-(2-(4-(4-fluoro-3-methylbenzyl)piperazin-1-yl)ethyl)-4-(4-fluorophenyl)-N-hydroxy-4-methoxybutanamide] | 970 |
| CO[C@H](C[C@H](CCN1CCN(CC2CCCCC2)CC1)C(=O)NO)c1ccc(F)cc1 [Compound 167961, (2S,4R)-2-(2-(4-(cyclohexylmethyl)piperazin-1-yl)ethyl)-4-(4-fluorophenyl)-N-hydroxy-4-methoxybutanamide] | 1800 |
| CO[C@H](C[C@H](CCN1CCN(Cc2ccccc2)CC1)C(=O)NO)c1ccc(F)cc1 [Compound 167962, (2S,4R)-2-(2-(4-benzylpiperazin-1-yl)ethyl)-4-(4-fluorophenyl)-N-hydroxy-4-methoxybutanamide] | 1900 |
| CO[C@H](C[C@H](CCN1CCN(c2ccccc2)CC1)C(=O)NO)c1ccc(F)cc1 [Compound 167986, (2S,4R)-4-(4-fluorophenyl)-N-hydroxy-4-methoxy-2-(2-(4-phenylpiperazin-1-yl)ethyl)butanamide] | 2220 |
| CO[C@H](C[C@H](CCN1CCC(c2ccccc2)CC1)C(=O)NO)c1ccc(F)cc1 [Compound 167987, (2S,4R)-4-(4-fluorophenyl)-N-hydroxy-4-methoxy-2-(2-(4-phenylpiperidin-1-yl)ethyl)butanamide] | 760 |
| CCN(CC)CC[C@@H](C[C@@H](OC)c1ccc(F)cc1)C(=O)NO [Compound 167995, (2S,4R)-2-(2-(diethylamino)ethyl)-4-(4-fluorophenyl)-N-hydroxy-4-methoxybutanamide] | 2200 |
| CO[C@H](C[C@H](CCN(Cc1ccccc1)Cc1ccccc1)C(=O)NO)c1ccc(F)cc1 [Compound 167996, (2S,4R)-2-(2-(dibenzylamino)ethyl)-4-(4-fluorophenyl)-N-hydroxy-4-methoxybutanamide] | 33400 |
| CO[C@H](C[C@H](CCN(C)c1cccc(Br)c1)C(=O)NO)c1ccc(F)cc1 [Compound 168000, (2S,4R)-2-(2-((3-bromophenyl)(methyl)amino)ethyl)-4-(4-fluorophenyl)-N-hydroxy-4-methoxybutanamide] | 2800 |
| CO[C@H](C[C@H](CCN(C)Cc1cccc(Br)c1)C(=O)NO)c1ccc(F)cc1 [Compound 168001, (2S,4R)-2-(2-((3-bromobenzyl)(methyl)amino)ethyl)-4-(4-fluorophenyl)-N-hydroxy-4-methoxybutanamide] | 1200 |
| CO[C@H](C[C@H](CCN(C)Cc1cccc(-c2ccc(F)c(C)c2)c1)C(=O)NO)c1ccc(F)cc1 [Compound 168003, (2S,4R)-2-(2-(((4′-fluoro-3′-methylbiphenyl-3-yl)methyl)(methyl)amino)ethyl)-4-(4-fluorophenyl)-N-hydroxy-4-methoxybutanamide] | 2300 |
| CO[C@H](C[C@H](CCN(C)c1cccc(-c2ccc(F)c(C)c2)c1)C(=O)NO)c1ccc(F)cc1 [Compound 168007, (2S,4R)-2-(2-((4′-fluoro-3′-methylbiphenyl-3-yl)(methyl)amino)ethyl)-4-(4-fluorophenyl)-N-hydroxy-4-methoxybutanamide] | 19500 |
| CO[C@H](C[C@H](CCN(C)c1ccc(Br)cc1)C(=O)NO)c1ccc(F)cc1 [Compound 168013, (2S,4R)-2-(2-((4-bromophenyl)(methyl)amino)ethyl)-4-(4-fluorophenyl)-N-hydroxy-4-methoxybutanamide] | 1800 |
| CO[C@H](C[C@H](CCN(C)Cc1ccc(Br)cc1)C(=O)NO)c1ccc(F)cc1 [Compound 168015] | 2200 |
| CO[C@H](C[C@H](CCN(C)C/C=C/c1ccccc1)C(=O)NO)c1ccc(F)cc1 [Compound 168017, (2S,4R)-2-(2-(cinnamyl(methyl)amino)ethyl)-4-(4-fluorophenyl)-N-hydroxy-4-methoxybutanamide] | 520 |
| CO[C@H](C[C@H](CCN(C)c1ccccc1)C(=O)NO)c1ccc(F)cc1 [Compound 168028, (2S,4R)-4-(4-fluorophenyl)-N-hydroxy-4-methoxy-2-(2-(methyl(phenyl)amino)ethyl)butanamide] | 1820 |
| CO[C@H](C[C@H](CCN(C)Cc1ccc(-c2ccc(F)c(C)c2)cc1)C(=O)NO)c1ccc(F)cc1 [Compound 168037, (2S,4R)-2-(2-(((4′-fluoro-3′-methylbiphenyl-4-yl)methyl)(methyl)amino)ethyl)-4-(4-fluorophenyl)-N-hydroxy-4-methoxybutanamide] | 680 |
| CO[C@H](C[C@H](CCN(C)c1ccc(-c2ccc(F)c(C)c2)cc1)C(=O)NO)c1ccc(F)cc1 [Compound 168038, (2S,4R)-2-(2-((4′-fluoro-3′-methylbiphenyl-4-yl)(methyl)amino)ethyl)-4-(4-fluorophenyl)-N-hydroxy-4-methoxybutanamide] | 910 |
| CO[C@H](C[C@H](CCN1CCC[C@H](CO)C1)C(=O)NO)c1ccc(F)cc1 [Compound 168039, (2S,4R)-4-(4-fluorophenyl)-N-hydroxy-2-(2-((S)-3-(hydroxymethyl)piperidin-1-yl)ethyl)-4-methoxybutanamide] | 580 |

— patent US8119692B2 (priority 2007, dated 2012)
